Experimental data reported in patent US11109593B2, “Isoxazolin-5-one derivative and herbicide containing same as active ingredient” (HOKKO CHEMICAL INDUSTRY CO., LTD., priority 2017, dated 2021).

Experiments:
Type in all cases: in vivo
[1] = test system: southern crabgrass; experiment: Test Example 4: herbicidal effect test by treatment of leave and stem in dry field farming (seven days after seeding); conditions: 120 g/10a active ingredient; emulsion sprayed seven days after seeding; evaluated 14 days after treatment
In short: (§1)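 Weeds were seeded at 20 seeds per species into the top 1 cm of alluvial upland soil in pots, then sprayed 7 days after seeding with water-diluted emulsifiable concentrate at 100 L/10 a, giving 120 g active ingredient/10 a. Duplicate pots; herbicidal rate (%) was 14 days post-treatment, from dry weight versus untreated.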

[2] = test system: Echinochloa crus-galli; experiment: as above; conditions: 120 g/10a active ingredient; emulsion sprayed seven days after seeding; evaluated 14 days after treatment
In short: as §1

[3] = test system: Chenopodium album; experiment: as above; conditions: 120 g/10a active ingredient; emulsion sprayed seven days after seeding; evaluated 14 days after treatment
In short: as §1

[4] = test system: Amaranthus viridis; experiment: as above; conditions: 120 g/10a active ingredient; emulsion sprayed seven days after seeding; evaluated 14 days after treatment
In short: as §1

[5] = test system: Echinochloa crus-galli; experiment: Test Example 2: herbicidal effect test by treatment during growing period in paddy rice cultivation (seven days after seeding); conditions: 120 g/10a active ingredient, assessed 14 days after treatment, dry weight vs untreated area
In short: (§2)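 Post-emergence paddy water application: compounds were formulated as emulsions, diluted and dropped into flooded pots seven days after sowing at a rate equivalent to 120 g per 10 ares. Efficacy was taken as dry-weight reduction relative to untreated controls after 14 days.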

[6] = test system: broad leaf weeds (Lindernia pyxidaria and Monochoria vaginalis); experiment: as above; conditions: 120 g/10a active ingredient, assessed 14 days after treatment, dry weight vs untreated area
In short: as §2

[7] = test system: Scirpus juncoides; experiment: as above; conditions: 120 g/10a active ingredient, assessed 14 days after treatment, dry weight vs untreated area
In short: as §2

[8] = test system: Echinochloa crus-galli; experiment: Test Example 1: herbicidal effect test by treatment of rice paddy soil (immediately after seeding); conditions: 120 g/10a active ingredient, dry weight vs untreated area, 14 days after treatment
In short: (§3)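 Paddy soil in pots with compound fertilizer, puddled; 30 seeds per species sown at 0–1 cm, flooded ~3 cm, greenhouse. Water-diluted emulsions dropped onto water immediately after seeding at 120 g active ingredient per 10 ares, duplicate. Herbicidal rate (%) from plant dry weight versus untreated, 14 days after treatment.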

[9] = test system: broad leaf weeds (Lindernia pyxidaria and Monochoria vaginalis); experiment: as above; conditions: 120 g/10a active ingredient, dry weight vs untreated area, 14 days after treatment
In short: as §3

[10] = test system: Scirpus juncoides; experiment: as above; conditions: 120 g/10a active ingredient, dry weight vs untreated area, 14 days after treatment
In short: as §3

[11] = test system: southern crabgrass; experiment: Test Example 3: herbicidal effect test by treatment of dry field farming soil (one day after seeding); conditions: 120 g/10a active ingredient, evaluated 14 days after treatment
In short: (§4)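 Dry-field alluvium pots; weed seeds incorporated in top 1 cm; soil spray of diluted emulsion 1 d after seeding, 120 g a.i./10 a in 100 L/10 a. Readout: % reduction of dry weight vs untreated, day 14, duplicates.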

[12] = test system: Echinochloa crus-galli; experiment: as above; conditions: 120 g/10a active ingredient, evaluated 14 days after treatment
In short: as §4

[13] = test system: Chenopodium album; experiment: as above; conditions: 120 g/10a active ingredient, evaluated 14 days after treatment
In short: as §4

[14] = test system: Amaranthus viridis; experiment: as above; conditions: 120 g/10a active ingredient, evaluated 14 days after treatment
In short: as §4

For Cc1c(Cc2ccccc2N(S(C)(=O)=O)S(=O)(=O)C(F)(F)F)c(=O)on1Cc1ccc(F)cc1 [Compound 1-906], the “herbicidal effect (herbicidal rate), southern crabgrass” value (from here on “herbicidal effect … southern crabgrass”) [1] was 50%, the “herbicidal effect (herbicidal rate), Echinochloa crus-galli” value [2] was 90% and the “herbicidal effect (herbicidal rate), Chenopodium album” value (“herbicidal effect … Chenopodium album” for short) [3] was 50%. For the same molecule, the “herbicidal effect (herbicidal rate), Amaranthus viridis” value (“herbicidal effect … Amaranthus viridis” below) [4] was 100%, the “Herbicidal rate (%) Echinochloa crus-galli” value [5] was 90% and the “Herbicidal rate (%) Lindernia pyxidaria” value [6] was 100%. For the same molecule, the “Herbicidal rate (%) Monochoria vaginalis” value [6] was 100%, the “Herbicidal rate (%) Scirpus juncoides” value [7] was 100% and the “Herbicidal rate (%) Echinochloa crus-galli” value [8] was 100%. For the same molecule, the “Herbicidal rate (%) Lindernia pyxidaria” value [9] was 100%, the “Herbicidal rate (%) Monochoria vaginalis” value [9] was 100% and the “Herbicidal rate (%) Scirpus juncoides” value [10] was 100%. For the same molecule, the “herbicidal rate, southern crabgrass” value [11] was 90%, the “herbicidal rate, Echinochloa crus-galli” value [12] was 100% and the “herbicidal rate, Chenopodium album” value [13] was 70%. The “herbicidal rate, Amaranthus viridis” value [14] was 50%.

For Cc1c(Cc2ccccc2N(S(C)(=O)=O)S(=O)(=O)C(F)(F)F)c(=O)on1C(C)c1ccccc1 (stereo not shown) [Compound 1-907], the “herbicidal effect … southern crabgrass” value [1] was 90%, the “herbicidal effect (herbicidal rate), Echinochloa crus-galli” value [2] was 90% and the “herbicidal effect … Chenopodium album” value [3] was 40%. The “herbicidal effect … Amaranthus viridis” value [4] was 40%, the “Herbicidal rate (%) Echinochloa crus-galli” value [5] was 90% and the “Herbicidal rate (%) Lindernia pyxidaria” value [6] was 90%. For the same molecule, the “Herbicidal rate (%) Monochoria vaginalis” value [6] was 90%, the “Herbicidal rate (%) Scirpus juncoides” value [7] was 90% and the “Herbicidal rate (%) Echinochloa crus-galli” value [8] was 90%. For the same molecule, the “Herbicidal rate (%) Lindernia pyxidaria” value [9] was 90%, the “Herbicidal rate (%) Monochoria vaginalis” value [9] was 90% and the “Herbicidal rate (%) Scirpus juncoides” value [10] was 90%. The “herbicidal rate, southern crabgrass” value [11] was 90%, the “herbicidal rate, Echinochloa crus-galli” value [12] was 90% and the “herbicidal rate, Chenopodium album” value [13] was 90%. The “herbicidal rate, Amaranthus viridis” value [14] was 90%.

CCC(C)n1oc(=O)c(Cc2ccccc2N(S(=O)(=O)CC)S(=O)(=O)C(F)(F)F)c1C (stereo not shown) [Compound 1-913] was tested, and the “herbicidal effect … southern crabgrass” value [1] was 90%, the “herbicidal effect (herbicidal rate), Echinochloa crus-galli” value [2] was 90% and the “herbicidal effect … Chenopodium album” value [3] was 40%. The “herbicidal effect … Amaranthus viridis” value [4] was 40%, the “Herbicidal rate (%) Echinochloa crus-galli” value [5] was 90% and the “Herbicidal rate (%) Lindernia pyxidaria” value [6] was 90%. For the same molecule, the “Herbicidal rate (%) Monochoria vaginalis” value [6] was 90%, the “Herbicidal rate (%) Scirpus juncoides” value [7] was 90% and the “Herbicidal rate (%) Echinochloa crus-galli” value [8] was 90%. The “Herbicidal rate (%) Lindernia pyxidaria” value [9] was 90%, the “Herbicidal rate (%) Monochoria vaginalis” value [9] was 90% and the “Herbicidal rate (%) Scirpus juncoides” value [10] was 90%. The “herbicidal rate, southern crabgrass” value [11] was 90%, the “herbicidal rate, Echinochloa crus-galli” value [12] was 90% and the “herbicidal rate, Chenopodium album” value [13] was 90%. For the same molecule, the “herbicidal rate, Amaranthus viridis” value [14] was 90%.

CCS(=O)(=O)N(c1ccccc1Cc1c(C)n(C(C)COC)oc1=O)S(=O)(=O)C(F)(F)F (stereo not shown) [Compound 1-915] was tested, and the “herbicidal effect … southern crabgrass” value [1] was 90%, the “herbicidal effect (herbicidal rate), Echinochloa crus-galli” value [2] was 90% and the “herbicidal effect … Chenopodium album” value [3] was 40%. For the same molecule, the “herbicidal effect … Amaranthus viridis” value [4] was 40%, the “Herbicidal rate (%) Echinochloa crus-galli” value [5] was 90% and the “Herbicidal rate (%) Lindernia pyxidaria” value [6] was 90%. For the same molecule, the “Herbicidal rate (%) Monochoria vaginalis” value [6] was 90%, the “Herbicidal rate (%) Scirpus juncoides” value [7] was 90% and the “Herbicidal rate (%) Echinochloa crus-galli” value [8] was 90%. The “Herbicidal rate (%) Lindernia pyxidaria” value [9] was 90%, the “Herbicidal rate (%) Monochoria vaginalis” value [9] was 90% and the “Herbicidal rate (%) Scirpus juncoides” value [10] was 90%. For the same molecule, the “herbicidal rate, southern crabgrass” value [11] was 90%, the “herbicidal rate, Echinochloa crus-galli” value [12] was 90% and the “herbicidal rate, Chenopodium album” value [13] was 90%. For the same molecule, the “herbicidal rate, Amaranthus viridis” value [14] was 90%.

With CCS(=O)(=O)N(c1ccccc1Cc1c(C)n(CCSC)oc1=O)S(=O)(=O)C(F)(F)F [Compound 1-916] the “herbicidal effect … southern crabgrass” value [1] was 90%, the “herbicidal effect (herbicidal rate), Echinochloa crus-galli” value [2] was 90% and the “herbicidal effect … Chenopodium album” value [3] was 40%. For the same molecule, the “herbicidal effect … Amaranthus viridis” value [4] was 40%, the “Herbicidal rate (%) Echinochloa crus-galli” value [5] was 90% and the “Herbicidal rate (%) Lindernia pyxidaria” value [6] was 90%. For the same molecule, the “Herbicidal rate (%) Monochoria vaginalis” value [6] was 90%, the “Herbicidal rate (%) Scirpus juncoides” value [7] was 90% and the “Herbicidal rate (%) Echinochloa crus-galli” value [8] was 90%. The “Herbicidal rate (%) Lindernia pyxidaria” value [9] was 90%, the “Herbicidal rate (%) Monochoria vaginalis” value [9] was 90% and the “Herbicidal rate (%) Scirpus juncoides” value [10] was 90%. For the same molecule, the “herbicidal rate, southern crabgrass” value [11] was 90%, the “herbicidal rate, Echinochloa crus-galli” value [12] was 90% and the “herbicidal rate, Chenopodium album” value [13] was 90%. For the same molecule, the “herbicidal rate, Amaranthus viridis” value [14] was 90%.

For CCS(=O)(=O)N(c1ccccc1Cc1c(C)n(C(C)c2ccccc2)oc1=O)S(=O)(=O)C(F)(F)F (stereo not shown) [Compound 1-917], the “herbicidal effect … southern crabgrass” value [1] was 90%, the “herbicidal effect (herbicidal rate), Echinochloa crus-galli” value [2] was 90% and the “herbicidal effect … Chenopodium album” value [3] was 40%. The “herbicidal effect … Amaranthus viridis” value [4] was 40%, the “Herbicidal rate (%) Echinochloa crus-galli” value [5] was 90% and the “Herbicidal rate (%) Lindernia pyxidaria” value [6] was 90%. For the same molecule, the “Herbicidal rate (%) Monochoria vaginalis” value [6] was 90%, the “Herbicidal rate (%) Scirpus juncoides” value [7] was 90% and the “Herbicidal rate (%) Echinochloa crus-galli” value [8] was 90%. The “Herbicidal rate (%) Lindernia pyxidaria” value [9] was 90%, the “Herbicidal rate (%) Monochoria vaginalis” value [9] was 90% and the “Herbicidal rate (%) Scirpus juncoides” value [10] was 90%. For the same molecule, the “herbicidal rate, southern crabgrass” value [11] was 90%, the “herbicidal rate, Echinochloa crus-galli” value [12] was 90% and the “herbicidal rate, Chenopodium album” value [13] was 90%. The “herbicidal rate, Amaranthus viridis” value [14] was 90%.

In the case of Cc1c(Cc2ccccc2N(S(=O)(=O)C(F)(F)F)S(=O)(=O)C(F)(F)F)c(=O)on1C(C)C [Compound 1-962], the “herbicidal effect … southern crabgrass” value [1] is reported as 60%, the “herbicidal effect (herbicidal rate), Echinochloa crus-galli” value [2] is reported as 90% and the “herbicidal effect … Chenopodium album” value [3] is reported as 50%. For the same molecule, the “herbicidal effect … Amaranthus viridis” value [4] was 40%, the “Herbicidal rate (%) Echinochloa crus-galli” value [5] was 90% and the “Herbicidal rate (%) Lindernia pyxidaria” value [6] was 60%. The “Herbicidal rate (%) Monochoria vaginalis” value [6] was 80%, the “Herbicidal rate (%) Scirpus juncoides” value [7] was 80% and the “Herbicidal rate (%) Echinochloa crus-galli” value [8] was 100%. For the same molecule, the “Herbicidal rate (%) Lindernia pyxidaria” value [9] was 100%, the “Herbicidal rate (%) Monochoria vaginalis” value [9] was 100% and the “Herbicidal rate (%) Scirpus juncoides” value [10] was 90%. For the same molecule, the “herbicidal rate, southern crabgrass” value [11] was 90%, the “herbicidal rate, Echinochloa crus-galli” value [12] was 90% and the “herbicidal rate, Chenopodium album” value [13] was 70%. For the same molecule, the “herbicidal rate, Amaranthus viridis” value [14] was 80%.
